# Measurements as given in ChEMBL document CHEMBL2424566, “Preparation of betulinic acid derivatives by chemical and biotransformation methods and determination of cytotoxicity against selected cancer cell lines” (Eur J Med Chem, 2013).
# Activity calls are given as the source filed them. No cut-off for these calls is given here.
# Legend:
# 8505C = test: Cytotoxicity against human 8505C cells assessed as cell viability after 96 hrs by SRB assay; format: functional, cell-based
# [1] = Cytotoxicity against human 518A2 cells assessed as cell viability after 96 hrs by SRB assay; format: functional, cell-based; conditions: 518A2, 96 h
# A549 [2] = test: Cytotoxicity against human A549 cells assessed as cell viability after 96 hrs by SRB assay; format: functional, cell-based; conditions: A549, 96 h
# MCF7 [3] = test: Cytotoxicity against human MCF7 cells assessed as cell viability after 96 hrs by SRB assay; format: functional, cell-based; conditions: MCF7, 96 h
# A2780 [4] = test: Cytotoxicity against human A2780 cells assessed as cell viability after 96 hrs by SRB assay; format: functional, cell-based; conditions: A2780, 96 h
# A549 [5] = test: Induction of apoptosis in human A549 cells assessed as apoptotic bodies at IC80 after 24 hrs by acridine orange/ethidium bromide staining-based fluorescence microscopic analysis; format: functional, cell-based
# [6] = Cytotoxicity against human CCD-18Co cells assessed as cell viability after 96 hrs by SRB assay; format: cell-based
# A549 [7] = test: Induction of apoptosis in human A549 cells assessed as membrane blebbing at IC80 after 24 hrs by acridine orange/ethidium bromide staining-based fluorescence microscopic analysis; format: functional, cell-based
# A549 [8] = test: Induction of apoptosis in human A549 cells assessed as chromatin condensation at IC80 after 24 hrs by acridine orange/ethidium bromide staining-based fluorescence microscopic analysis; format: functional, cell-based
# A549 [9] = test: Induction of apoptosis in human A549 cells assessed as DNA fragmentation at IC80 after 24 hrs by acridine orange/ethidium bromide staining-based fluorescence microscopic analysis; format: functional, cell-based
# MCF7 [10] = test: Selectivity index, ratio of IC50 for human CCD-18Co cells to IC50 for human MCF7 cells; format: functional
# A2780 [11] = test: Selectivity index, ratio of IC50 for human CCD-18Co cells to IC50 for human A2780 cells; format: functional
# [12] = Selectivity index, ratio of IC50 for human CCD-18Co cells to IC50 for human 518A2 cells; format: functional
# A549 [13] = test: Induction of apoptosis in human A549 cells assessed as early apoptosis and secondary necrosis at IC80 after 48 hrs by annexin V-FITC staining-based flow cytometric analysis relative to control; format: functional
# A549 [14] = test: Cell cycle arrest in human A549 cells assessed as accumulation at G0/G1 phase at IC80 after 48 hrs by propidium iodide staining-based flow cytometric analysis (48.5 +/- 1.82%); format: functional
# A549 [15] = test: Induction of apoptosis in human A549 cells assessed as early apoptosis and secondary necrosis at IC80 after 24 hrs by annexin V-FITC staining-based flow cytometric analysis relative to control; format: functional
# A549 [16] = test: Cell cycle arrest in human A549 cells assessed as accumulation at G2/M phase at IC80 by propidium iodide staining-based flow cytometric analysis; format: functional; conditions: TDE = time-dependent effect
# A549 [17] = test: Cell cycle arrest in human A549 cells assessed as accumulation at subG1 phase at IC80 by propidium iodide staining-based flow cytometric analysis; format: functional; conditions: TDE = time-dependent effect
# A549 [18] = test: Cell cycle arrest in human A549 cells assessed as accumulation at subG1 phase at IC80 after 48 hrs by propidium iodide staining-based flow cytometric analysis (3.23 +/- 0.25%); format: functional
# A549 [19] = test: Cell cycle arrest in human A549 cells assessed as accumulation at S phase at IC80 by propidium iodide staining-based flow cytometric analysis; format: functional; conditions: TDE = time-dependent effect
# A549 [20] = test: Cell cycle arrest in human A549 cells assessed as accumulation at G2/M phase at IC80 after 48 hrs by propidium iodide staining-based flow cytometric analysis (26 +/- 1.1%); format: functional
# A549 [21] = test: Cell cycle arrest in human A549 cells assessed as accumulation at S phase at IC80 after 48 hrs by propidium iodide staining-based flow cytometric analysis (19.1 +/- 1.05%); format: functional
# A549 [22] = test: Cell cycle arrest in human A549 cells assessed as accumulation at G0/G1 phase at IC80 by propidium iodide staining-based flow cytometric analysis; format: functional; conditions: TDE = time-dependent effect
# A549 [23] = test: Cell cycle arrest in human A549 cells assessed as accumulation at subG1 phase at IC80 after 24 hrs by propidium iodide staining-based flow cytometric analysis (2.73 +/- 0.49%); format: functional
# A549 [24] = test: Cell cycle arrest in human A549 cells assessed as accumulation at S phase at IC80 after 24 hrs by propidium iodide staining-based flow cytometric analysis (20.2 +/- 0.81%); format: functional
# A549 [25] = test: Cell cycle arrest in human A549 cells assessed as accumulation at G2/M phase at IC80 after 24 hrs by propidium iodide staining-based flow cytometric analysis (24.9 +/- 1.46%); format: functional
# A549 [26] = test: Cell cycle arrest in human A549 cells assessed as accumulation at G0/G1 phase at IC80 after 24 hrs by propidium iodide staining-based flow cytometric analysis (49.5 +/- 2.51%); format: functional
SMILES,IC50 (8505C) [µM],IC50 [1] [µM],IC50 (A549 [2]) [µM],IC50 (MCF7 [3]) [µM],IC50 (A2780 [4]) [µM],further results
C/C(=N/O)[C@@H]1CC[C@]2(C(=O)O)CC[C@]3(C)[C@H](CC[C@@H]4[C@@]5(C)CC[C@H](O)C(C)(C)[C@@H]5CC[C@]43C)[C@@H]12,55.9,63.2,53.7,52.2,54.4,–
CC(=O)[C@@H]1CC[C@]2(C(=O)O)CC[C@]3(C)[C@H](CC[C@@H]4[C@@]5(C)CC/C(=N\Nc6ccc([N+](=O)[O-])cc6[N+](=O)[O-])C(C)(C)[C@@H]5CC[C@]43C)[C@@H]12,16.9,14.6,12.1,7.52,9.1,Activity (A549 [5]): Active; IC50 [6]: 43.5 µM; Activity (A549 [7]): Active; Activity (A549 [8]): Active; Activity (A549 [9]): Active
C=C(C)[C@@H]1CC[C@]2(C(=O)O)CC[C@]3(C)[C@H](CC[C@@H]4[C@@]5(C)CCC(=O)C(C)(C)[C@@H]5CC[C@]43C)[C@@H]12 [BETUNOLIC ACID],14,12.9,10.4,–,5.97,–
C=C(C)[C@@H]1CC[C@]2(C(=O)OC)CC[C@]3(C)[C@H](CC[C@@H]4[C@@]5(C)CC/C(=N\Nc6ccc([N+](=O)[O-])cc6[N+](=O)[O-])C(C)(C)[C@@H]5CC[C@]43C)[C@@H]12,> 100,> 100,> 100,> 100,> 100,–
C[C@@H](C=O)[C@@H]1CC[C@]2(C(=O)O)CC[C@]3(C)[C@H](CC[C@@H]4[C@@]5(C)CCC(O)C(C)(C)[C@@H]5CC[C@]43C)[C@@H]12 (stereo partly specified),55.2,52.9,46.9,44.4,50.3,–
C=C(C)[C@@H]1CC[C@]2(C(=O)OC)CC[C@]3(C)[C@H](CC[C@@H]4[C@@]5(C)CC[C@H](O)C(C)(C)[C@@H]5CC[C@]43C)[C@@H]12 [METHYL BETULINATE],17.2,16.9,17.2,16.9,16.3,–
C/C(=N\Nc1ccc([N+](=O)[O-])cc1[N+](=O)[O-])[C@@H]1CC[C@]2(C(=O)O)CC[C@]3(C)[C@H](CC[C@@H]4[C@@]5(C)CC/C(=N\Nc6ccc([N+](=O)[O-])cc6[N+](=O)[O-])C(C)(C)[C@@H]5CC[C@]43C)[C@@H]12,> 100,> 100,> 100,60.2,53.8,–
CC(=O)[C@@H]1CC[C@]2(C(=O)O)CC[C@]3(C)[C@H](CC[C@@H]4[C@@]5(C)CC[C@H](O)C(C)(C)[C@@H]5CC[C@]43C)[C@@H]12 [PLATANIC ACID],93.6,97.5,75.4,63.2,68,–
C=C(C)[C@@H]1CC[C@]2(C(=O)O)CC[C@]3(C)[C@H](CC[C@@H]4[C@@]5(C)CC/C(=N\Nc6ccc([N+](=O)[O-])cc6[N+](=O)[O-])C(C)(C)[C@@H]5CC[C@]43C)[C@@H]12,25.9,13.5,21.4,8.17,6.22,Activity (A549 [5]): Active; IC50 [6]: 18.1 µM; Ratio IC50 (MCF7 [10]): 1; Ratio IC50 (A2780 [11]): 1; Activity (A549 [7]): Active; Activity (A549 [8]): Active; Ratio IC50 [12]: 1; Activity (A549 [9]): Active
C=C(C)[C@@H]1CC[C@]2(C(=O)OCc3ccccc3)CC[C@]3(C)[C@H](CC[C@@H]4[C@@]5(C)CC/C(=N\Nc6ccc([N+](=O)[O-])cc6[N+](=O)[O-])C(C)(C)[C@@H]5CC[C@]43C)[C@@H]12,> 100,> 100,> 100,> 100,66.7,–
C=C(C)[C@@H]1CC[C@]2(C(=O)O)CC[C@]3(C)[C@H](CC[C@@H]4[C@@]5(C)CC[C@H](O)C(C)(C)[C@@H]5CC[C@]43C)[C@@H]12 [BETULINIC ACID],12.6,14.8,13.3,14,8.75,Activity (A549 [13]): >50%; Activity (A549 [5]): Active; IC50 [6]: 43.6 µM; Activity (A549 [14]): 0.96%; Activity (A549 [15]): 32%; Activity (A549 [16]): tde; Activity (A549 [17]): tde; Activity (A549 [18]): 98.5%; Activity (A549 [19]): tde; Activity (A549 [20]): 0.17%; Activity (A549 [7]): Active; Activity (A549 [8]): Active; Activity (A549 [21]): 0.33%; Activity (A549 [22]): tde; Activity (A549 [23]): 18.8%; Activity (A549 [24]): 20.1%; Activity (A549 [25]): 20.1%; Activity (A549 [9]): Active; Activity (A549 [26]): 36.7%
C[C@H](C=O)[C@@H]1CC[C@]2(C(=O)O)CC[C@]3(C)[C@H](CC[C@@H]4[C@@]5(C)CC/C(=N\Nc6ccc([N+](=O)[O-])cc6[N+](=O)[O-])C(C)(C)[C@@H]5CC[C@]43C)[C@@H]12,2.17,1.76,2,2.41,1.81,–
CC(=O)[C@@H]1CC[C@]2(C(=O)O)CC[C@]3(C)[C@H](CC[C@@H]4[C@@]5(C)CCC(=O)C(C)(C)[C@@H]5CC[C@]43C)[C@@H]12,64.1,43.5,59.1,47.1,16.1,–
C=C(C)[C@@H]1CC[C@]2(C(=O)OC)CC[C@]3(C)[C@H](CC[C@@H]4[C@@]5(C)CCC(=O)C(C)(C)[C@@H]5CC[C@]43C)[C@@H]12 [METHYL BETULONATE],> 100,68,> 100,98.1,36.2,–
